Experimental data from US20120079612A1, “Dry eye animal model” (West Virginia University, priority 2010, published 2012).

How the values were obtained:
Serum E2 levels = assay type: in vivo, Sprague-Dawley rats; conditions: Example 2: rats at 18 months after 1.5 mg 90-day pellet implanted at 15 months; compared to Intact (placebo) rats
Description: Female Sprague-Dawley rats, age 15 months, were subcutaneously implanted with placebo pellets and E2 rats received pellets containing 1.5 mg of 17β-estradiol in a 90-day time-release matrix. Both groups received treatment until they reached 18 months of age. Serum E2 levels were measured from blood collected prior to randomization to treatment groups and again at time of euthanasia. […] Serum E2 levels of rats prior to randomization at 15 months of age (Pre) and two weeks before gland excision, at 18 months of age (Post). […] Also, Tear Volume Assessment and Tear Break-up Time both have been examined in the rats. […] TBUT was also altered by estrogen treatment with E2 rats having a significant reduction in time to first tear disruption compared to Intact rats (16.4±1.1 sec and 33.7±1.9 sec, respectively; p<0.001) (FIG. 5). Tear volume was measured in 18 month old female rats during 3 months of E2 or placebo supplementation. […] (B) Tear break up time was also measured in rats receiving placebo or E2 treatment using fluorescein sodium (0.25%).

female rats [1] = experiment: Tear breakup time (TBUT), Fluress and slit lamp; assay type: in vivo, Sprague-Dawley rats
Description: (§1) Female rats of 9 months of age were ovariectomized and immediately supplemented with 1.5 mg of 17β-estradiol in three, separate 90-day time release pellets until 18 months. Three experimental groups were used with ovaries excised from rats in treatment […] (FIG. 1). Group 1 underwent a sham ovariectomy and was implanted with placebo pellet, Group 2 underwent an ovariectomy and was implanted with placebo pellet, and Group 3 underwent an ovariectomy and was implanted with E2 pellet. The three groups had tear breakup time and tear volume tested. […] The time lapse between the last blink and the first randomly distributed dry spot on the cornea using a portable slit lamp was recorded. The process was repeated 3 times for each subject and the results recorded (FIG. 2). […] Rats received 0.5 uL Fluress onto the eye, then the eye was manually blinked 3 times, and the modified Schirmer's strip was placed in the upper fornix for 5 minutes for assessment of tear volume and the volume was recorded (FIG. 3).
(§2) Female Sprague-Dawley rats, age 15 months, were subcutaneously implanted with placebo pellets and E2 rats received pellets containing 1.5 mg of 17β-estradiol in a 90-day time-release matrix. […] Serum E2 levels were measured from blood collected prior to randomization to treatment groups and again at time of euthanasia. […]

female rats [2] = experiment: Tear volume, modified Schirmer's test; assay type: in vivo, Sprague-Dawley rats
Description: as §1, §2

women = conditions: compared to non-treated women of the same age, the estrogen-alone figure is for women with prior hysterectomy; cited from earlier work
[3] = Example 1: rats ovariectomized at 9 months, 1.5 mg 17β-estradiol 90-day pellets until 18 months, compared to control groups 1 and 2
[4] = Example 2: post-menopausal rats at 18 months, 3 months of E2 supplementation, p<0.001 vs Intact rats

serum E2 levels (Serum E2 levels)	Compound	tear break up time (female rats [1]; [3])	TBUT, time to first tear disruption (female rats [1]; [4]) [s]	tear volume (female rats [2]; [3])	tear volume (female rats [2]; [4]) [mm]	increase of KCS (women) [%]
significantly elevated	C[C@]12CC[C@@H]3c4ccc(O)cc4CC[C@H]3[C@@H]1CC[C@@H]2O [E2, 17β-estradiol]	shorter tear break up time	16.4 ± 1.1	reduced tear volume	7.4±0.58	–
–	estrogen	–	–	–	–	~70
